In brackets after ≈: the same amount, converted by molar mass.
What was measured:
Type in all cases: physicochemical
[1] = Stability in solvent: equilibration of Form HB with solvent, residue analysed by XRPD
[2] = Physical stability: behavior under compression (XRPD); settings: 5 minutes at 10 tons, hydraulic press, 13 mm tablets
Protocol: Behavior under compression: The physical stability of crystalline Form HB was also evaluated. 300 mf of the crystalline form HB was compressed for 5 minutes at 10 tons with a hydraulic press (diameter of the tablets 13 mm). The sample was then characterized by XRPD to detect any change in the solid state.

Hygroscopicity by DVS = assay: Hygroscopicity by DVS
Source text: Crystalline form HB is a hydrated form of (S)-3-amino-4-(5-(4-((5-chloro-3-fluoropyridin-2-yl)oxy)phenyl)-2H-tetrazol-2-yl)butanoic acid.

[3] = Physical stability: granulation simulation experiment (XRPD and/or DSC); settings: ethanol or water as granulation solvent, 25° C.
Protocol: Behavior under granulation simulation experiment: The physical stability of crystalline forms HB was also evaluated in granulation simulation experiments. In these experiments granulating solvent was added dropwise to the crystalline form HB until the solid is wetted sufficiently. The mixture was then vortexed between each addition at 25° C. The mixture was then dried under vacuum. The crystallinity of the material (post-grinding) was re-evaluated by XRPD and/or DSC. The granulating solvent was water or ethanol.

[4] = Solubility in aqueous buffers and bio-relevant media
[5] = Physical stability: behavior under grinding (XRPD); settings: ground manually in a mortar for 3 minutes
Protocol: Behavior under grinding: The physical stability of crystalline form Form HB was also evaluated. 50 mg of the crystalline form B or HB were ground manually in a mortar for 3 minutes.

[6] = Solid state stability in bulk (HPLC degradation products, XRPD); settings: test conditions 1-5: 1 week, tight or open container, room temperature to 80° C., up to 92% RH; listed as Modification HB
Protocol: The chemical and physical stability of form B and form HB was investigated, exposing the individual forms to high humidity at temperatures ranging from 25-80° C.
The degradation products were analyzed by HPLC and the sample was analyzed by XPRD to detect any changes to the solid state.

[7] = Stability in solvent: equilibration of Form HB with solvent, residue analysed by XRPD; remark: listed apart in the source
Protocol: Equilibrations with solvent were carried out to investigate the relative stability of form HB in solvent. 50 mg of Form HB is equilibrated with 1 mL solvent for 24 h (or 7 days, or 28 days) in a water bath at 25° C. or for 7 days at 50° C. The solutions are filtered and dried for 10 minutes in air. The resulting solid is analyzed by XRPD.
Various solvent were investigated: acetone, acetonitrile, dichloromethane, dioxane, ethanol, heptane, methanol, THF, acetone/water mixtures from 10/90 to 90/10, acetonitrile/water mixtures from 10/90 to 90/10, dioxane/water mixtures from 10/90 to 90/10 and ethanol/water mixture from 10/90 to 90/10, tetrahydrofuran/water (50/50) and 1-propanol/water (70/30).

N[C@@H](CC(=O)O)Cn1nnc(-c2ccc(Oc3ncc(Cl)cc3F)cc2)n1 [Form HB, (S)-3-amino-4-(5-(4-((5-chloro-3-fluoropyridin-2-yl)oxy)phenyl)-2H-tetrazol-2-yl)butanoic acid]
Form conversion through slurry ([1]; high temperature slurry at 80° C. in aqueous solvent mixtures): Modification B can be obtained | Form conversion through slurry ([1]; hot or boiling methanol, about 50° C. to about 65° C.): transforms into anhydrous Modification B | Change of crystalline form by XRPD under compression [2]: No change of crystalline form | Rehydration (Hygroscopicity by DVS; at 10% RH and above 60% RH): Stepwise rehydration to HB | Behaviour at low humidity (Hygroscopicity by DVS; below 10% RH): loses their water | Hygroscopicity (Hygroscopicity by DVS; between 10-90% RH): not hygroscopic | Form change by XRPD upon granulation [3]: no form change | solubility ([4]; FaSSIF (pH=6.5)): 90 µg/mL (≈ 229 µM) | solubility ([4]; FeSSIF (pH=5.8)): 9 µg/mL (≈ 22.9 µM) | solubility ([4]; simulated gastric fluid (SGF of pH=2)): 750 µg/mL (≈ 1910 µM) | Change by XRPD under grinding [5]: did not result in any change | Chemical and physical stability in bulk [6]: stable in all conditions except at 80 °C without humidity | Solid form after equilibration with solvent ([7]; 25° C., 7 days or 28 days, a variety of solvent): no change | Solid form after equilibration with solvent ([7]; 25° C., 7 days or 28 days, acetone, dioxane, ethanol, methanol and THF): converts to amorphous material or gel like material | Solid state residue ([7]; 50° C., 7 days, 1,4-Dioxane): Amorphous | Solid state residue ([7]; 50° C., 7 days, 1-Butanol): Amorphous | Solid state residue ([7]; 50° C., 7 days, Acetone): Amorphous | Solid state residue ([7]; 50° C., 7 days, Acetone/water 50/50): Form HB | Solid state residue ([7]; 50° C., 7 days, Acetone/water 90/10): Form HB | Solid state residue ([7]; 50° C., 7 days, Acetonitrile): Amorphous | Solid state residue ([7]; 50° C., 7 days, Anisole): Amorphous | Solid state residue ([7]; 50° C., 7 days, DMSO): Amorphous | Solid state residue ([7]; 50° C., 7 days, DMSO/methanol 50/50): Amorphous | Solid state residue ([7]; 50° C., 7 days, DMSO/water 50/50): Form HB | Solid state residue ([7]; 50° C., 7 days, DMSO/water 90/10): Amorphous | Solid state residue ([7]; 50° C., 7 days, Dichloromethane): Amorphous | Solid state residue ([7]; 50° C., 7 days, Ethanol): Amorphous | Solid state residue ([7]; 50° C., 7 days, Ethyl acetate): Amorphous | Solid state residue ([7]; 50° C., 7 days, Isopropanol): Amorphous | Solid state residue ([7]; 50° C., 7 days, Isopropyl acetate): Amorphous | Solid state residue ([7]; 50° C., 7 days, MEK): Amorphous | Solid state residue ([7]; 50° C., 7 days, MIBK): Amorphous | Solid state residue ([7]; 50° C., 7 days, MTBE): Amorphous | Solid state residue ([7]; 50° C., 7 days, Methanol): transformed into Form B | Solid state residue ([7]; 50° C., 7 days, NMP): Amorphous | Solid state residue ([7]; 50° C., 7 days, THF): Amorphous | Solid state residue ([7]; 50° C., 7 days, THF/acetone 50/50): Amorphous | Solid state residue ([7]; 50° C., 7 days, THF/methanol 50/50): Amorphous | Solid state residue ([7]; 50° C., 7 days, THF/water 50/50): Form HB | Solid state residue ([7]; 50° C., 7 days, Toluene): Amorphous | Solid state residue ([7]; 50° C., 7 days, Water): Form HB | Solid form after equilibration with solvent ([7]; 50° C., 7 days, many solvents): became amorphous | Solid state residue ([7]; 50° C., 7 days, n-Heptane): mixture HB + B

Reference: patent US11993582B2, “Crystalline forms of a LTA4H inhibitor” (Novartis AG, priority 2018, dated 2024)
